# Measured values as given in patent US11155561B2, “Substituted glutarimides as Btk inhibitors” (SHANGHAI MEIZER PHARMACEUTICALS CO., LTD., priority 2017, dated 2021).
# Key:
# [1] = test system: SU-DHL-6 (human B cell lymphoma cells); assay: Inhibition of proliferation of SU-DHL-6 cells by CTG assay; type: cell-based; conditions: compound 10 μM, 72 hours
# Experimental: (§1) Example 8 Testing the Inhibitory Effect of Formula Compounds on the Proliferation of DOHH2 Cells (Human B Cell Lymphoma Cells) and SU-DHL-6 (Human B Cell Lymphoma Cells) by CTG Assay
# (§2) The […] was used to determine the inhibitory effect of the compounds on the proliferation of DOHH2 cells (available from ATCC) and SU-DHL-6 cells (available from ATCC) in vitro. Cells were cultured and compounds were prepared referring to Example 7. The cell plating density was 1×10^4 cells/well for DOHH2 cells, and 1.5×10^4 cells/well for SU-DHL-6 cells. The culture time after the administration was 72 hours. After that an appropriate amount of CTG reagent was added, the luminescence value was measured, and the inhibition rate was calculated.
# [2] = target: T1, Btk (Homo sapiens, UniProt Q06187); assay: Inhibition activity of compounds on Btk by Caliper assay; type: biochemical; conditions: compound 100 nM, Btk kinase
# T1 sequence (Q06187 whole entry): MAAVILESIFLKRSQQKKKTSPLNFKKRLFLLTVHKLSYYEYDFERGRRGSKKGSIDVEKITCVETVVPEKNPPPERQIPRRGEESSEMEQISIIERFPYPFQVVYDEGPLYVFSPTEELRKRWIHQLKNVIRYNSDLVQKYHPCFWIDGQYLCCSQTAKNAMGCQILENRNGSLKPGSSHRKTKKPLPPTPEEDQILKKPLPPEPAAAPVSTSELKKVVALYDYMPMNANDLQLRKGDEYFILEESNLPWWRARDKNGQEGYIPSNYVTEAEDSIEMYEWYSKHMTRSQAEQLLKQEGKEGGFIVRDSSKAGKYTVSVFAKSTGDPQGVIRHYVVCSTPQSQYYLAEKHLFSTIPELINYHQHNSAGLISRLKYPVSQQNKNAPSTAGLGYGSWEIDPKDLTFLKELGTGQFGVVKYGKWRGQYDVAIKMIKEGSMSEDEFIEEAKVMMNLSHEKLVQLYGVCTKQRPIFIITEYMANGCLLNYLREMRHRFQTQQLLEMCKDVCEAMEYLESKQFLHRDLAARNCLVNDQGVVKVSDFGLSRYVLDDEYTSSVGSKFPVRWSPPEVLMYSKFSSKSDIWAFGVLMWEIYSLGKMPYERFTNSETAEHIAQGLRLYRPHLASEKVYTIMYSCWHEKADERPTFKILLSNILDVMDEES
# Experimental: Example 5 Testing the Inhibition Activity of Compounds on Btk by Caliper Assay
# The experimental steps were as follows:
# Preparation of 1× kinase reaction buffer (50 mM HEPES, PH 7.5; 0.0015% Brij-35) and kinase reaction termination solution (100 mM HEPES, PH 7.5; 0.0015% Brij-35; 0.2% Coating Reagent; 50 mM EDTA);
# Preparation of experimental samples: 100 μL of 5 μM sample solution (dissolved in 100% DMSO) was added to a 96-well plate to obtain a 50× sample solution. As a control, two wells were set containing only 100 μL of 100% DMSO on the same plate. One was served as a control without samples and the other was served as a control without enzymes. 10 μL of sample and 90 μL of 1× kinase reaction buffer were added to a 96-well plate as a transfer plate. The transfer plate was shaken for 10 minutes.
# Preparation of the test plate: taking 5 μL each of the prepared samples in the 96-well transfer plate into a 384-well plate.
# Kinase reaction: to 5 μL of 5× compound solution (dissolved in DMSO, diluted 10 times with water) was added 10 μL of 2.5× Btk kinase solution (kinase was diluted with 1× kinase reaction buffer), and incubated at room temperature for 10 min, then 10 μL of 2.5× substrate peptide solution (FAM-labeled peptide and ATP were diluted with 1× kinase reaction buffer) was added.
# Termination of the kinase reaction: 25 μL of kinase termination solution was added after being reacted at 28° C. for a period of time.
# The fluorescence (F) was tested on a Caliper and data was collected.
# The inhibition rate of kinase activity was calculated: the percent inhibition rate of kinase activity=(FDMSO control−Fsample)/(FDMSO control−Fnegative control)×100, with DMSO as the solution control, and no kinase as the negative control.
# [3] = target: T1, Btk; assay: Btk protein degradation activity by Western blot in RPMI8226 cells; type: cell-based; parameters: degradation activity of the compound (10 μM) on Btk protein in RPMI8226 cells; endogenous in cells; host or cells: RPMI8226; key: “−” represents no degradation activity; “+” represents a degradation rate of 10%-30%; “++” represents a degradation rate of 30%-50%; “+++” represents a degradation rate of 50%-90%; “++++” means the degradation rate is greater than 90%; conditions: compound 10 μM, 24 hours
# Experimental: Example 6 Testing the Btk Protein Degradation Activity of Compounds by Western Blot
# Cell lines: RPMI8226 Cell line was cultured in RPMI1640 medium containing 10% calf serum in a 37° C., 5% CO2, and saturated humidity incubator.
# DMSO control group and compound intervention group (10 μM) were set. Cells was collected after the treatment for 24 hours, then 100 μL of pre-chilled cell lysate was added and cells were lysed on ice for 30 minutes. Total cell protein was extracted, and protein concentration was determined and quantified by […] (BCA) method. After routine gelatinization, loading, electrophoresis, then transferring to membrane and blocking, rabbit anti-human Btk (1:500) was added, and incubated at 4° C. overnight. The mixture was rinsed and then horseradish peroxidase labeled goat anti-rabbit IgG (1:5000) was added. After the rinsing it was developed by the ECL developing solution, the Bio-Rad gel imaging system was used for scanning and imaging, and the computer software was used for analysis. […] (GAPDH) was used as an internal control.
# Image J software was used to analyze the gray scale of each band to calculate the Btk protein degradation rate of the compound.
# [4] = test system: DOHH2 cells (human B cell lymphoma cells); assay: Inhibition of proliferation of DOHH2 cells by CTG assay; type: cell-based; conditions: DOHH-2, compound 10 μM, 72 hours
# Experimental: as §1, §2
SMILES,Degradation activity [3],further results
Nc1ncnc2c1c(-c1ccc(Oc3ccccc3)cc1)nn2C1CCCN(CCOCCOCCOCCNc2cccc3c2C(=O)N(C2CCC(=O)NC2=O)C3=O)C1 (stereo not drawn) [Compound 15],++++ (“++++” means the degradation rate is greater than 90%),inhibition at 10 µM [1]: 94%; inhibition at 0.1 µM [2]: 98%; inhibition at 10 µM [4]: 99%
Nc1ncnc2c1c(-c1ccc(Oc3ccccc3)cc1)nn2C1CCCN(C(=O)/C=C/CCOCCOCCOc2cccc3c2C(=O)N(C2CCC(=O)NC2=O)C3=O)C1 (stereo not drawn) [Compound 17],+++ (“+++” represents a degradation rate of 50%-90%),
Nc1ncnc2c1c(-c1ccc(Oc3ccccc3)cc1)nn2C1CCCN(C(=O)/C=C/CCOCCOCCOCCOc2cccc3c2C(=O)N(C2CCC(=O)NC2=O)C3=O)C1 (stereo not drawn) [Compound 18],+++ (“+++” represents a degradation rate of 50%-90%),
Nc1ncnc2c1c(-c1ccc(Oc3ccccc3)cc1)nn2C1CCCN(C(=O)/C=C/CCCOCCOCCOCCOc2cccc3c2C(=O)N(C2CCC(=O)NC2=O)C3=O)C1 (stereo not drawn) [Compound 19],+++ (“+++” represents a degradation rate of 50%-90%),
Nc1ncnc2c1c(-c1ccc(Oc3ccccc3)cc1)nn2C1CCCN(C(=O)/C=C/CCCCOCCOCCOCCOc2cccc3c2C(=O)N(C2CCC(=O)NC2=O)C3=O)C1 (stereo not drawn) [Compound 20],+++ (“+++” represents a degradation rate of 50%-90%),
Nc1ncnc2c1c(-c1ccc(Oc3ccccc3)cc1)nn2C1CCCN(C(=O)/C=C/COCCOCCOCCOCCOc2cccc3c2C(=O)N(C2CCC(=O)NC2=O)C3=O)C1 (stereo not drawn) [Compound 21],+++ (“+++” represents a degradation rate of 50%-90%),
Nc1ncnc2c1c(-c1ccc(Oc3ccccc3)cc1)nn2C1CCCN(C(=O)/C=C/CCOCCOCCOCCOCCOc2cccc3c2C(=O)N(C2CCC(=O)NC2=O)C3=O)C1 (stereo not drawn) [Compound 22],+++ (“+++” represents a degradation rate of 50%-90%),
Nc1ncnc2c1c(-c1ccc(Oc3ccccc3)cc1)nn2C1CCCN(C(=O)/C=C/CCOCCOCCNc2cccc3c2C(=O)N(C2CCC(=O)NC2=O)C3=O)C1 (stereo not drawn) [Compound 23],++++ (“++++” means the degradation rate is greater than 90%),
Nc1ncnc2c1c(-c1ccc(Oc3ccccc3)cc1)nn2C1CCCN(C(=O)/C=C/CCOCCOCCOCCNc2cccc3c2C(=O)N(C2CCC(=O)NC2=O)C3=O)C1 (stereo not drawn) [Compound 24],++++ (“++++” means the degradation rate is greater than 90%),
Nc1ncnc2c1c(-c1ccc(Oc3ccccc3)cc1)nn2C1CCCN(C(=O)/C=C/CCCOCCOCCOCCNc2cccc3c2C(=O)N(C2CCC(=O)NC2=O)C3=O)C1 (stereo not drawn) [Compound 25],++++ (“++++” means the degradation rate is greater than 90%),
Nc1ncnc2c1c(-c1ccc(Oc3ccccc3)cc1)nn2C1CCCN(C(=O)/C=C/CCCCOCCOCCOCCNc2cccc3c2C(=O)N(C2CCC(=O)NC2=O)C3=O)C1 (stereo not drawn) [Compound 26],++++ (“++++” means the degradation rate is greater than 90%),
Nc1ncnc2c1c(-c1ccc(Oc3ccccc3)cc1)nn2C1CCCN(C(=O)/C=C/COCCOCCOCCOCCNc2cccc3c2C(=O)N(C2CCC(=O)NC2=O)C3=O)C1 (stereo not drawn) [Compound 27],++++ (“++++” means the degradation rate is greater than 90%),
Nc1ncnc2c1c(-c1ccc(Oc3ccccc3)cc1)nn2C1CCCN(C(=O)/C=C/CCOCCOCCOCCOCCNc2cccc3c2C(=O)N(C2CCC(=O)NC2=O)C3=O)C1 (stereo not drawn) [Compound 28],+++ (“+++” represents a degradation rate of 50%-90%),
C=C(CCCOCCOCCOc1cccc2c1C(=O)N(C1CCC(=O)NC1=O)C2=O)C(=O)N1CCCC(n2nc(-c3ccc(Oc4ccccc4)cc3)c3c(N)ncnc32)C1 (stereo not drawn) [Compound 29],++++ (“++++” means the degradation rate is greater than 90%),
C=C(CCOCCOCCOc1cccc2c1C(=O)N(C1CCC(=O)NC1=O)C2=O)C(=O)N1CCCC(n2nc(-c3ccc(Oc4ccccc4)cc3)c3c(N)ncnc32)C1 (stereo not drawn) [Compound 30],++++ (“++++” means the degradation rate is greater than 90%),
C=C(CCOCCOCCOCCOc1cccc2c1C(=O)N(C1CCC(=O)NC1=O)C2=O)C(=O)N1CCCC(n2nc(-c3ccc(Oc4ccccc4)cc3)c3c(N)ncnc32)C1 (stereo not drawn) [Compound 31],++++ (“++++” means the degradation rate is greater than 90%),
C=C(CCOCCOCCOCCOCCOc1cccc2c1C(=O)N(C1CCC(=O)NC1=O)C2=O)C(=O)N1CCCC(n2nc(-c3ccc(Oc4ccccc4)cc3)c3c(N)ncnc32)C1 (stereo not drawn) [Compound 32],+++ (“+++” represents a degradation rate of 50%-90%),
C=C(CCCOCCOCCNc1cccc2c1C(=O)N(C1CCC(=O)NC1=O)C2=O)C(=O)N1CCCC(n2nc(-c3ccc(Oc4ccccc4)cc3)c3c(N)ncnc32)C1 (stereo not drawn) [Compound 33],++++ (“++++” means the degradation rate is greater than 90%),
C=C(CCOCCOCCNc1cccc2c1C(=O)N(C1CCC(=O)NC1=O)C2=O)C(=O)N1CCCC(n2nc(-c3ccc(Oc4ccccc4)cc3)c3c(N)ncnc32)C1 (stereo not drawn) [Compound 34],++++ (“++++” means the degradation rate is greater than 90%),
C=C(CCOCCOCCOCCNc1cccc2c1C(=O)N(C1CCC(=O)NC1=O)C2=O)C(=O)N1CCCC(n2nc(-c3ccc(Oc4ccccc4)cc3)c3c(N)ncnc32)C1 (stereo not drawn) [Compound 35],++++ (“++++” means the degradation rate is greater than 90%),
C=C(CCOCCOCCOCCOCCNc1cccc2c1C(=O)N(C1CCC(=O)NC1=O)C2=O)C(=O)N1CCCC(n2nc(-c3ccc(Oc4ccccc4)cc3)c3c(N)ncnc32)C1 (stereo not drawn) [Compound 36],+++ (“+++” represents a degradation rate of 50%-90%),
Nc1ncnc2c1c(-c1ccc(Oc3ccccc3)cc1)nn2C1CCCN(C(=O)c2cn(CCOCCOCCOc3cccc4c3C(=O)N(C3CCC(=O)NC3=O)C4=O)nn2)C1 (stereo not drawn) [Compound 37],++++ (“++++” means the degradation rate is greater than 90%),
Nc1ncnc2c1c(-c1ccc(Oc3ccccc3)cc1)nn2C1CCCN(C(=O)c2cn(CCOCCOCCOCCOc3cccc4c3C(=O)N(C3CCC(=O)NC3=O)C4=O)nn2)C1 (stereo not drawn) [Compound 39],++++ (“++++” means the degradation rate is greater than 90%),
Nc1ncnc2c1c(-c1ccc(Oc3ccccc3)cc1)nn2C1CCCN(C(=O)c2cn(CCOCCOCCOCCOCCOc3cccc4c3C(=O)N(C3CCC(=O)NC3=O)C4=O)nn2)C1 (stereo not drawn) [Compound 40],+++ (“+++” represents a degradation rate of 50%-90%),
Nc1ncnc2c1c(-c1ccc(Oc3ccccc3)cc1)nn2C1CCCN(C(=O)c2cn(CCOCCOCCOCCNc3cccc4c3C(=O)N(C3CCC(=O)NC3=O)C4=O)nn2)C1 (stereo not drawn) [Compound 43],++++ (“++++” means the degradation rate is greater than 90%),
Nc1ncnc2c1c(-c1ccc(Oc3ccccc3)cc1)nn2C1CCCN(C(=O)c2cn(CCOCCOCCOCCOCCNc3cccc4c3C(=O)N(C3CCC(=O)NC3=O)C4=O)nn2)C1 (stereo not drawn) [Compound 44],+++ (“+++” represents a degradation rate of 50%-90%),
"Nc1ncnc2c1c(-c1ccc(Oc3ccccc3)cc1)nn2C1CCN(CCOCCOCCOCCOc2cccc3c2C(=O)N(C2CCC(=O)NC2=O)C3=O)CC1 (stereo not drawn) [control compound, reference compound]",−,
